# In patent EP0645399A2, “Ribosome inactivating proteins (RIB), their method of production and medical preparation containing RIP” (priority 1993, dated 1995):
# Target: T1, HIV-1 Reverse Transkriptase (Human immunodeficiency virus type 1 group M subtype B, UniProt P03366)
# T1 construct: Rekombinante HIV-1 Reverse Transkriptase (66 kDa); made in house; host or cells: Escherichia coli
# Assay: HIV-1 RT test (3H-TTP incorporation, recombinant enzyme)
# Format: biochemical
# Conditions: positive control; read-out: IC₅₀ (HIV-1 RT)
# Source text: Zur Untersuchung der biologischen Aktivität wird das aufgereinigte Protein (P 1) in einem Ribosomen-Hemmtest und einem HIV-1 RT Test eingesetzt. Im Ribosomen-Hemmtest wird die Inaktivierung von Ribosomen in einem Retikulozyten-Lysat durch das erfindungsgemäße Protein gemessen (vgl. Krawetz et al., 1983). Im HIV-1 RT Test wird die Hemmung der HIV-1 Reverse Transkriptase (HIV-1 RT) durch das erfindungsgemäße Protein P 1 bestimmt (vgl. Tan et al., 1991).
# Enzym: Rekombinante HIV-1 Reverse Transkriptase (66 kDa), exprimiert in Escherichia coli (vgl. Tan et al., 1991 und darin zitierte Literatur). Die Aktivität des Enzyms in RT-Testsystemen ist von viralem Enzym nicht zu unterscheiden. Protein-Konzentration: 0,11 mg/ml; Aktivität: Einbau von 238 nM TTP/mg Protein in 10 min bei 37°C. Testansatz: 50 mM Tris-HCl, pH 8,0, 150 mM KCl, 5 mM MgCl₂, 0,5 mM EGTA, 5 mM Dithiothreitol, 0,3 mM Glutathion, 2,5 µg/ml BSA, 41 µM poly(A) (Σ₂₆₀(mM) = 7,8), 9,5 µM oligo(dT)₁₂₋₁₈ (Σ₂₆₅(mM) = 5,6), 0,05% Triton X-100, 20 µm TTP und 0,5 µCi (³H)-TTP (Endvolumen 100 µl). Probenlösung: 10 µl, in H₂O oder 25 mM Tris-HCl, pH 8,4. HIV-1 RT: 10 µl (0,11 µg in Testpuffer)
# Die Polymerisationsreaktion wird durch den Zusatz der HIV-1 RT-Lösung zum Testansatz gestartet. Nach einer Inkubationszeit von 1 Stunde (37°C) wird die Reaktion durch Zugabe von 25 µl einer 0,1 M EGTA-Lösung gestoppt und die Ansätze auf Eis gekühlt. […]
smiles,measurement,value
COc1cc2c(ccc3c4cc(OC)c(OC)cc4c[n+](C)c23)cc1O [Fagaronin-Chlorid],IC50,13 µM
